Results reported in ChEMBL document CHEMBL3797052 (Eur J Med Chem, 2016).

Key:
[1] = Antiproliferative activity against human SKOV3 cells assessed as growth inhibition after 48 hrs by sulforhodamine B assay; assay type: functional; details: SK-OV-3, 48 h
SR [2] = assay: Antiproliferative activity against human SR cells assessed as cell growth at 10^-7 M after 48 hrs by sulforhodamine B assay; assay type: functional; details: read-out: Activity
KM12 = assay: Antiproliferative activity against human KM12 cells assessed as cell growth at 10^-7 M after 48 hrs by sulforhodamine B assay; assay type: functional; details: KM12, 48 h, read-out: Activity
[3] = Antiproliferative activity against human SNB75 cells assessed as cell growth at 10^-7 M after 48 hrs by sulforhodamine B assay; assay type: functional; details: SNB-75, 48 h, read-out: Activity
[4] = Antiproliferative activity against human IGROV1 cells assessed as growth inhibition after 48 hrs by sulforhodamine B assay; assay type: functional; details: IGROV-1, 48 h
SK-MEL-5 [5] = assay: Antiproliferative activity against human SK-MEL-5 cells assessed as growth inhibition after 48 hrs by sulforhodamine B assay; assay type: functional; details: SK-MEL-5, 48 h
Malme-3M = assay: Antiproliferative activity against human MALME-3M cells assessed as cell growth at 10^-7 M after 48 hrs by sulforhodamine B assay; assay type: functional; details: read-out: Activity
SK-MEL-5 [6] = assay: Antiproliferative activity against human SK-MEL-5 cells assessed as cell growth at 10^-7 M after 48 hrs by sulforhodamine B assay; assay type: functional; details: SK-MEL-5, 48 h, read-out: Activity
[7] = Antiproliferative activity against human TK10 cells assessed as cell growth at 10^-7 M after 48 hrs by sulforhodamine B assay; assay type: functional; details: TK-10, 48 h, read-out: Activity
[8] = Antiproliferative activity against human DU145 cells assessed as cell growth at 10^-7 M after 48 hrs by sulforhodamine B assay; assay type: functional; details: DU-145, 48 h, read-out: Activity
MDA-MB-231 = assay: Antiproliferative activity against human MDA-MB-231 cells assessed as cell growth at 10^-7 M after 48 hrs by sulforhodamine B assay; assay type: functional; details: MDA-MB-231, 48 h, read-out: Activity
[9] = target: Serine/threonine-protein kinase B-raf (Homo sapiens, UniProt P15056, V600E); assay: Inhibition of BRAF V600E mutant (unknown origin) measured after 40 mins by scintillation counting
CYP2C9 = CYP2C9 (Homo sapiens, UniProt P11712); assay: Inhibition of recombinant human CYP2C9 assessed as remaining enzyme activity using CYP2C9 green as substrate at 10 uM after 5 mins in presence of NADP by fluorescence plate reader analysis; assay type: ADME; details: recombinant human CYP2C9, probe CYP2C9 green, read-out: Activity
[10] = target: Voltage-gated inwardly rectifying potassium channel KCNH2 (Homo sapiens, UniProt Q12809); assay: Inhibition of human ERG assessed as reduction in channel current by automated patch-clamp electrophysiology assay
[11] = Antiproliferative activity against human MOLT4 cells assessed as cell growth at 10^-8 M after 48 hrs by sulforhodamine B assay; assay type: functional; details: MOLT-4, 48 h, read-out: Activity
[12] = Antiproliferative activity against human HOP92 cells assessed as cell growth at 10^-8 M after 48 hrs by sulforhodamine B assay; assay type: functional; details: HOP-92, 48 h, read-out: Activity
NCI-H226 = assay: Antiproliferative activity against human NCI-H226 cells assessed as cell growth at 10^-8 M after 48 hrs by sulforhodamine B assay; assay type: functional; details: NCI-H226, 48 h, read-out: Activity
SR [13] = assay: Antiproliferative activity against human SR cells assessed as cell growth at 10^-6 M after 48 hrs by sulforhodamine B assay; assay type: functional; details: read-out: Activity
EKVX = assay: Antiproliferative activity against human EKVX cells assessed as cell growth at 10^-6 M after 48 hrs by sulforhodamine B assay; assay type: functional; details: read-out: Activity
NCI-H322M = assay: Antiproliferative activity against human NCI-H322M cells assessed as cell growth at 10^-6 M after 48 hrs by sulforhodamine B assay; assay type: functional; details: read-out: Activity
[14] = Antiproliferative activity against human SW620 cells assessed as cell growth at 10^-6 M after 48 hrs by sulforhodamine B assay; assay type: functional; details: SW-620, 48 h, read-out: Activity
[15] = Antiproliferative activity against human RPMI8226 cells assessed as cell growth at 10^-4 M after 48 hrs by sulforhodamine B assay; assay type: functional; details: RPMI-8226, 48 h, read-out: Activity
SR [16] = assay: Antiproliferative activity against human SR cells assessed as cell growth at 10^-4 M after 48 hrs by sulforhodamine B assay; assay type: functional; details: read-out: Activity
NCI-H460 = assay: Antiproliferative activity against human NCI-H460 cells assessed as cell growth at 10^-4 M after 48 hrs by sulforhodamine B assay; assay type: functional; details: NCI-H460, 48 h, read-out: Activity
NCI-H522 = assay: Antiproliferative activity against human NCI-H522 cells assessed as cell growth at 10^-4 M after 48 hrs by sulforhodamine B assay; assay type: functional; details: NCI-H522, 48 h, read-out: Activity
[17] = Antiproliferative activity against human COLO205 cells assessed as cell growth at 10^-4 M after 48 hrs by sulforhodamine B assay; assay type: functional; details: COLO 205, 48 h, read-out: Activity
[18] = Antiproliferative activity against human SF539 cells assessed as cell growth at 10^-4 M after 48 hrs by sulforhodamine B assay; assay type: functional; details: SF-539, 48 h, read-out: Activity
SK-MEL-5 [19] = assay: Antiproliferative activity against human SK-MEL-5 cells assessed as cell growth at 10^-8 M after 48 hrs by sulforhodamine B assay; assay type: functional; details: SK-MEL-5, 48 h, read-out: Activity
A498 = assay: Antiproliferative activity against human A498 cells assessed as cell growth at 10^-8 M after 48 hrs by sulforhodamine B assay; assay type: functional; details: A498, 48 h, read-out: Activity
SN12C [20] = assay: Antiproliferative activity against human SN12C cells assessed as cell growth at 10^-8 M after 48 hrs by sulforhodamine B assay; assay type: functional; details: read-out: Activity
MCF7 [21] = assay: Antiproliferative activity against human MCF7 cells assessed as cell growth at 10^-8 M after 48 hrs by sulforhodamine B assay; assay type: functional; details: MCF7, 48 h, read-out: Activity
ACHN = assay: Antiproliferative activity against human ACHN cells assessed as cell growth at 10^-6 M after 48 hrs by sulforhodamine B assay; assay type: functional; details: read-out: Activity
SN12C [22] = assay: Antiproliferative activity against human SN12C cells assessed as cell growth at 10^-6 M after 48 hrs by sulforhodamine B assay; assay type: functional; details: read-out: Activity
MCF7 [23] = assay: Antiproliferative activity against human MCF7 cells assessed as cell growth at 10^-6 M after 48 hrs by sulforhodamine B assay; assay type: functional; details: MCF7, 48 h, read-out: Activity
SN12C [24] = assay: Antiproliferative activity against human SN12C cells assessed as cell growth at 10^-4 M after 48 hrs by sulforhodamine B assay; assay type: functional; details: read-out: Activity
[25] = Antiproliferative activity against human PC3 cells assessed as cell growth at 10^-4 M after 48 hrs by sulforhodamine B assay; assay type: functional; details: PC-3, 48 h, read-out: Activity
[26] = read-out: LC50 (the source's name)

Sequence of CYP2C9 (P11712 whole entry): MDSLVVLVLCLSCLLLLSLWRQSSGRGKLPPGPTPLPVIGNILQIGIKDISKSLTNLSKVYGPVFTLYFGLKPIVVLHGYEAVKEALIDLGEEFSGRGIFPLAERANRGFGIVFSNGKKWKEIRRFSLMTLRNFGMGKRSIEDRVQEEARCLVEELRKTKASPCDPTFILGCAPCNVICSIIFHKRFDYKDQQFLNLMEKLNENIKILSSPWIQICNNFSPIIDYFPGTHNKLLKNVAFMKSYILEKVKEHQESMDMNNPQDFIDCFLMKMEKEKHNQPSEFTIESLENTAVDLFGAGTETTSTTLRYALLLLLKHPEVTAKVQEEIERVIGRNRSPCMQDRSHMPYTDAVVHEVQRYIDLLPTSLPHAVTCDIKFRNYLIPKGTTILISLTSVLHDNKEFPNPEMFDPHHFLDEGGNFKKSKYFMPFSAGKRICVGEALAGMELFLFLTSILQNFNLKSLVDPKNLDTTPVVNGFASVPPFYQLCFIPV
Sequence of Voltage-gated inwardly rectifying potassium channel KCNH2 (Q12809 whole entry): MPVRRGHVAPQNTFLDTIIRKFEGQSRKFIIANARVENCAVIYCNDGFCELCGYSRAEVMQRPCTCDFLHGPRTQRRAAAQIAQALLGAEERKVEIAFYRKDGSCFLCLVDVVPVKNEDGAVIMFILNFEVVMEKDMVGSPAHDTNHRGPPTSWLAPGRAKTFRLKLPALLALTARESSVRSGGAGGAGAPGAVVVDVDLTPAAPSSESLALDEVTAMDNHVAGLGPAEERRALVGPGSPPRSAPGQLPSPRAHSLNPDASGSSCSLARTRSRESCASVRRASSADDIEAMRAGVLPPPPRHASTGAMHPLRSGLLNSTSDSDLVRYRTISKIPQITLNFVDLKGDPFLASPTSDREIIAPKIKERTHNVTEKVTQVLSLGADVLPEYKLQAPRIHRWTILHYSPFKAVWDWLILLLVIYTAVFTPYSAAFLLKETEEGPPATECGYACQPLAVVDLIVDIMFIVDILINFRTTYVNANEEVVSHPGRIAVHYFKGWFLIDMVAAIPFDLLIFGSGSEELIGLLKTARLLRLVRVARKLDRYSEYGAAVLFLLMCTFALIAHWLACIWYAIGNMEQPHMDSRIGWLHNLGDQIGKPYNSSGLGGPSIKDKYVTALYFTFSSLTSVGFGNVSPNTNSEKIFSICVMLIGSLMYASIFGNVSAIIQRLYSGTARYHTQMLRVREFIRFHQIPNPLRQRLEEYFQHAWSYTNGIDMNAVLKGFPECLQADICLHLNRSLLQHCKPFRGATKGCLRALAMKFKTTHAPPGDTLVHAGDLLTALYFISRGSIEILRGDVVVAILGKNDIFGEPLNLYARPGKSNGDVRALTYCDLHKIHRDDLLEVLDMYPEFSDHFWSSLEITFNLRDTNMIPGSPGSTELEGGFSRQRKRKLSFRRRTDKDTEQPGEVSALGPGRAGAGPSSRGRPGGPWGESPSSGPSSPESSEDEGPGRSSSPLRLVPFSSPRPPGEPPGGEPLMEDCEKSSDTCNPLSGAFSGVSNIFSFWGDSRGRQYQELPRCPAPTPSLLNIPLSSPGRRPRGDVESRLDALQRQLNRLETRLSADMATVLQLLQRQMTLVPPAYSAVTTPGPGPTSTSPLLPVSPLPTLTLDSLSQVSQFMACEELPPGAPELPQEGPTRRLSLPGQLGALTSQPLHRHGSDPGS
Sequence of Serine/threonine-protein kinase B-raf (P15056 2-766 V600E limits assumed): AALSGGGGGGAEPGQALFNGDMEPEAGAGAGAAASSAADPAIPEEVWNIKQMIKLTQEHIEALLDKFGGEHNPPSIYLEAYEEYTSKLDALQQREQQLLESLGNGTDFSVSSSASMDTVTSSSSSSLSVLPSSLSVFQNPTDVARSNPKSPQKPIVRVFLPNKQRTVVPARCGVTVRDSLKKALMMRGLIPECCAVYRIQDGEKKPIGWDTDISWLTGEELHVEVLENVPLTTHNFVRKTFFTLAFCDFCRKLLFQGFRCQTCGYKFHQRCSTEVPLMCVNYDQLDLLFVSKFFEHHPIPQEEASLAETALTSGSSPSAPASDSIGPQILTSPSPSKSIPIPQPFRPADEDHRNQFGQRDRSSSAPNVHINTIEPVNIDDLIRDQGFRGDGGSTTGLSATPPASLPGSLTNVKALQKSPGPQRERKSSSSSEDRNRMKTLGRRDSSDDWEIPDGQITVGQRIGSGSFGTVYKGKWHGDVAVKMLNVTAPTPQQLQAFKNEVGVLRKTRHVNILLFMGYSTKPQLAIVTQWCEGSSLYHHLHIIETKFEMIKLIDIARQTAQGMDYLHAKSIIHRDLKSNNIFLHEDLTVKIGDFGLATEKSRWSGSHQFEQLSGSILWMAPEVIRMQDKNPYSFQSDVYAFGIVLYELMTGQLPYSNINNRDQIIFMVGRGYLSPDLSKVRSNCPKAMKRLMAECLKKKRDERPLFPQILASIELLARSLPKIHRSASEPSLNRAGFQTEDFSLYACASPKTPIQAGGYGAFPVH

CNC(=O)c1cc(Oc2ccc3nc(NC(=O)Nc4ccc(Cl)c(Cl)c4)sc3c2)ccn1
GI50 [1]: 2.24 µM | TGI [1]: 4.09 µM | CC50 [1, 26]: 7.45 µM | growth at 0.1 µM (SR [2]): 105% | growth at 0.1 µM (KM12): 100% | growth at 0.1 µM [3]: 83% | GI50 [4]: 2.55 µM | TGI [4]: 6.75 µM | CC50 [4, 26]: > 100 µM | GI50 (SK-MEL-5 [5]): 2.24 µM | TGI (SK-MEL-5 [5]): 5.58 µM | CC50 (SK-MEL-5 [5]; [26]): > 100 µM | growth at 0.1 µM (Malme-3M): 82% | growth at 0.1 µM (SK-MEL-5 [6]): 100% | growth at 0.1 µM [7]: 112% | growth at 0.1 µM [8]: 101% | growth at 0.1 µM (MDA-MB-231): 97% | IC50 [9]: 0.095 µM | activity at 5 min, 10 µM (CYP2C9): 90% | IC50 [10]: > 100 µM | growth at 0.01 µM [11]: 92% | growth at 0.01 µM [12]: 100% | growth at 0.01 µM (NCI-H226): 104% | growth at 1 µM (SR [13]): 97% | growth at 1 µM (EKVX): 86% | growth at 1 µM (NCI-H322M): 84% | growth at 1 µM [14]: 128% | growth at 100 µM [15]: 15% | growth at 100 µM (SR [16]): 50% | growth at 100 µM (NCI-H460): -17% | growth at 100 µM (NCI-H522): 23% | growth at 100 µM [17]: 26% | growth at 100 µM [18]: -72% | growth at 0.01 µM (SK-MEL-5 [19]): 99% | growth at 0.01 µM (A498): 101% | growth at 0.01 µM (SN12C [20]): 102% | growth at 0.01 µM (MCF7 [21]): 87% | growth at 1 µM (ACHN): 88% | growth at 1 µM (SN12C [22]): 102% | growth at 1 µM (MCF7 [23]): 84% | growth at 100 µM (SN12C [24]): 9% | growth at 100 µM [25]: -50%
